Assays:
HEK293 Mock transfected = experiment: Anticancer activity in mock transfected HEK293; format: cell-based; settings: Bcr-Abl negative
[1] = target: ABL1(E255K)-phosphorylated (Homo sapiens, UniProt P00519, E255K); settings: 10 μM
[2] = target: ABL1(Q252H)-nonphosphorylated (Homo sapiens, UniProt P00519, Q252H); experiment: biochemical; settings: read-out: Percent control
FLT3(K663D) = target: T1, FLT3(K663D) (Homo sapiens, UniProt P36888, K663Q); experiment: biochemical; settings: read-out: Percent control
T1 sequence (P36888 564-993 K663Q limits assumed): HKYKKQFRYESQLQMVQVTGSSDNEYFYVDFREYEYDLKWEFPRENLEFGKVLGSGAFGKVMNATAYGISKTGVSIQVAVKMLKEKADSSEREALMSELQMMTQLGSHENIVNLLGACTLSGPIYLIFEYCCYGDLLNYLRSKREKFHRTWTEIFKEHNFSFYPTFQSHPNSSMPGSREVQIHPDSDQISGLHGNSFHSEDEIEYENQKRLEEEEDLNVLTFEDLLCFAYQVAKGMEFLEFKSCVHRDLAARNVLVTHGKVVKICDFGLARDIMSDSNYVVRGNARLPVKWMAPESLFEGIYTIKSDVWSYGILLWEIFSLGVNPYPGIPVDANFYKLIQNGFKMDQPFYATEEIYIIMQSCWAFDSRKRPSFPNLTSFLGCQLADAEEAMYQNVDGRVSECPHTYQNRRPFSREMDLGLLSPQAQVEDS

FLT3(R834Q) = target: T2, FLT3(R834Q) (Homo sapiens, UniProt P36888, R834Q); experiment: biochemical; settings: read-out: Percent control
T2 sequence (P36888 27-993 R834Q): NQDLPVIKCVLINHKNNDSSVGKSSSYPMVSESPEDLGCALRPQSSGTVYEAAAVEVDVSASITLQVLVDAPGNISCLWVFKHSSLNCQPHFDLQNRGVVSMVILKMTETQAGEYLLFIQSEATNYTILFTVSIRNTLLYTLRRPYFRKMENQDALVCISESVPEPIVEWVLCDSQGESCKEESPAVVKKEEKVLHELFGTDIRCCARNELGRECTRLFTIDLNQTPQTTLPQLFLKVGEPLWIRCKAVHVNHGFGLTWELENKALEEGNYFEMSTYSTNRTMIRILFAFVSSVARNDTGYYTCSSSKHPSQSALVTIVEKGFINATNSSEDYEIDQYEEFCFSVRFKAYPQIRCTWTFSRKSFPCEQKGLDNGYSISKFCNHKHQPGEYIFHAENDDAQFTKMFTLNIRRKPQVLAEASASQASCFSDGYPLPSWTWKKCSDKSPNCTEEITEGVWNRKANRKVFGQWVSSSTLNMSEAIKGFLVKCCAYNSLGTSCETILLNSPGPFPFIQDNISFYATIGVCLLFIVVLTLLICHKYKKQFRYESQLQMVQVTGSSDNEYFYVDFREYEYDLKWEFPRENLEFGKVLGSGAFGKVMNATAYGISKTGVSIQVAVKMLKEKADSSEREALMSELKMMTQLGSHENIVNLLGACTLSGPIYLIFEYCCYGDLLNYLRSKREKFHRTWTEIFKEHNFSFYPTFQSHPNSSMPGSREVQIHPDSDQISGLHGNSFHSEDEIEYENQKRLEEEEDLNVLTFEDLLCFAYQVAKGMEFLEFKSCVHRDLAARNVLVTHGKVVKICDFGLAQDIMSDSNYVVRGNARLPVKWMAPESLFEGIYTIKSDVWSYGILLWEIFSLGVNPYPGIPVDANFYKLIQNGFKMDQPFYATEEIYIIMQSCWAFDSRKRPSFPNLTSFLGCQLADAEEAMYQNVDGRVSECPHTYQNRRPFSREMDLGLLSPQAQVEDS

ZAP70 = target: T3, ZAP70 (Homo sapiens, UniProt P43403); experiment: biochemical; settings: read-out: Percent control
T3 sequence (P43403 1-619): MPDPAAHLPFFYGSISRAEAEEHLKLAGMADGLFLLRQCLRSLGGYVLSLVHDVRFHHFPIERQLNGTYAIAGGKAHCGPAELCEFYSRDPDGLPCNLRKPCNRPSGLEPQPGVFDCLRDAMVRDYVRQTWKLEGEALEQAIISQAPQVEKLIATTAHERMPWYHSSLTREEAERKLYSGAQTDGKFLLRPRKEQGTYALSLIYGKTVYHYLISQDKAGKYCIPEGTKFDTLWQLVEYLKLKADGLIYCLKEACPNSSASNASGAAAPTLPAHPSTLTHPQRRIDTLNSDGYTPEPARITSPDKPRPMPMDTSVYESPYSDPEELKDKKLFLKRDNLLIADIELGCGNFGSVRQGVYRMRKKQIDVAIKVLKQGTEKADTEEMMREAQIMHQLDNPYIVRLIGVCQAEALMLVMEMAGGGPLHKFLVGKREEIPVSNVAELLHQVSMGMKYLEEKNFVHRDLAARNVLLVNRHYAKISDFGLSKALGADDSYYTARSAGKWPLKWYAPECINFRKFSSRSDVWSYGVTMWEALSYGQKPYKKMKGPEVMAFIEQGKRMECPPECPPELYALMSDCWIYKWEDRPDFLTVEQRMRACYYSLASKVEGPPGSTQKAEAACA

Cc1ccc(NC(=O)c2ccc(CN3CCN(C)CC3)cc2)cc1Nc1nccc(-c2cccnc2)[n+]1[Pt-2]1([Cl])[NH2+]C2CCCCC2[NH2+]1 (stereo not drawn) [1b, oxaliplatin-imatinib]
IC50 (HEK293 Mock transfected): 10.6 ± 1.58 µM

C#Cc1cccc(Nc2c3cc(OCCOC)c(OCCOC)cc3nc[n+]2[Pt@SP2-2]([NH3+])([NH3+])[Cl])c1 [2a, cisplatin-erlotinib]
Percent control [1]: 9.9%

C#Cc1cccc(Nc2ncnc3cc(OCCOC)c(OCCOC)cc23)c1 [Erlotinib]
remaining activity at 10 µM [2]: 2.2%
remaining activity at 10 µM (FLT3(K663D)): 11.5%
remaining activity at 10 µM (FLT3(R834Q)): 100%

COc1cc2c(Nc3ccc(Br)cc3F)ncnc2cc1OCC1CCN(C)CC1 [Vandetanib, reference compound]
remaining activity at 10 µM (ZAP70): 100%
